Laboratory results from patent US20080280814A1, “Pharmaceutical Compositions Containing Insulin and Insulinotropic Peptide” (Novo Nordisk A/S, priority 2004, published 2008).

Target: T1, His^B10 anion site of the R6 hexameric aspart (Homo sapiens, UniProt P01308, P52D)
T1 construct: The A-chain is a 21 amino acid peptide and the B-chain is a 30 amino acid peptide
Assay: 600 MHz proton NMR of aspart/liraglutide mixtures (R6 hexamer signal of Cys A6 alpha proton at 5.6 ppm)
Assay type: binding
Conditions: for stabilization of the aspart R6 conformation (NMR resonances between 5 and 6 ppm): ligand at 3 mM added to the aspart/liraglutide mixtures of FIG. 13, FIG. 14, 15
Description: Insulin Aspart (B28 Asp human insulin) and liraglutide mixtures were prepared with constant aspart concentration (0.6 mM) and increasing concentration of liraglutide (going from 0 to 2.4 mM). Mixtures are formulated at pH 7.5, 1.6% w/v d-glycerol, 0.3 mM Zn(Ac)2, 30 mM d-phenol (deuterated phenol in order to avoid any proton NMR signal). […] This region of the proton NMR signal only included signals from aspart, no signals from liraglutide were present.
Ligands for the His^B10 anion site of the R6 hexameric aspart entity will stabilize this R6 conformation. Two such ligands were tested under the same conditions as was used in the experiment depicted in FIG. 13 with the addition of ligands at 3 mM concentration.

T1 sequence (P01308 25-54 P52D): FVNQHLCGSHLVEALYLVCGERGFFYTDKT
T1 sequence (P01308 90-110): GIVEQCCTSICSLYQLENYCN

With `c1ccc(Cc2nn[nH]n2)cc1` [5-Benzyl-2H-tetrazole] as the molecule, how does the “stabilization of the aspart R6 conformation (NMR resonances between 5 and 6 ppm)” value read?
The value was “stabilized the R6 conformation”.

How did the “stabilization of the aspart R6 conformation (NMR resonances between 5 and 6 ppm)” value turn out when `O=C1NC(=O)/C(=C/c2cccc3ccccc23)S1` [5-Naphthalen-1-ylmethylenethiazolidine-2,4-dione] was run?
The value was “invariant aspart resonances under increasing liraglutide concentration”.

What about the “tightness of binding to the Zn-binding pocket of aspart, compared” value (ligand at 3 mM, FIG. 15 against FIG. 14) of the same molecule?
The value was “binds even tighter than the 5-Benzyl-2H-tetrazole”.
